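Protocol summary: plate cells (96-well), add compound at 5 concentrations, incubate 48 h, interpolate endpoints linearly. GI50 is the concentration that inhibits growth by half.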 Activity calls are given as the source filed them. No stated cut-off is given here; in the data, active = GI50 up to about 1.1 µM and inactive = higher.
Assays:
Assay in all cases: inhibition of tumour cell growth, NCI panel, 48 h
OVCAR-3 = test system: OVCAR-3
NCI/ADR-RES = test system: NCI/ADR-RES
HL-60 = test system: HL-60
K562 = test system: K562
CCRF-CEM = test system: CCRF-CEM
NCI-H460 = test system: NCI-H460
M14 = test system: M14
PC-3 = test system: PC-3
KM12 = test system: KM12
HCT-15 = test system: HCT-15
COLO 205 = test system: COLO 205
EKVX = test system: EKVX
OVCAR-5 = test system: OVCAR-5
NCI-H522 = test system: NCI-H522
SNB-75 = test system: SNB-75
CAKI-1 = test system: CAKI-1
Hs-578T = test system: Hs-578T
ACHN = test system: ACHN
A549 = test system: A549
MDA-MB-435 = test system: MDA-MB-435
IGROV-1 = test system: IGROV-1
UACC-62 = test system: UACC-62
UO-31 = test system: UO-31
OVCAR-8 = test system: OVCAR-8
SNB-19 = test system: SNB-19
MOLT-4 = test system: MOLT-4
U-251 = test system: U-251
LOX IMVI = test system: LOX IMVI
RXF 393 = test system: RXF 393
HCC 2998 = test system: HCC 2998
HCT-116 = test system: HCT-116
786-0 = test system: 786-0
HOP-62 = test system: HOP-62
DU-145 = test system: DU-145
MCF7 = test system: MCF7
SF-539 = test system: SF-539
MDA-N = test system: MDA-N
SR = test system: SR
SK-MEL-28 = test system: SK-MEL-28
NCI-H23 = test system: NCI-H23
MDA-MB-231 = test system: MDA-MB-231
T47D = test system: T47D
HT-29 = test system: HT-29
SK-OV-3 = test system: SK-OV-3
Malme-3M = test system: Malme-3M
SW-620 = test system: SW-620
UACC-257 = test system: UACC-257
TK-10 = test system: TK-10
OVCAR-4 = test system: OVCAR-4
SF-268 = test system: SF-268
NCI-H226 = test system: NCI-H226
A498 = test system: A498
HOP-92 = test system: HOP-92
SN12C = test system: SN12C
SF-295 = test system: SF-295
SK-MEL-2 = test system: SK-MEL-2
RPMI-8226 = test system: RPMI-8226
SK-MEL-5 = test system: SK-MEL-5

## O=C(CCC(C(=O)OCc1ccccc1)C(=O)OCc1ccccc1)Nc1ccc(OCc2ccccc2)cc1
OVCAR-3
  GI50: > 100 µM (inactive)
NCI/ADR-RES
  GI50: 60.4 µM (inactive)
HL-60
  GI50: > 100 µM (inactive)
K562
  GI50: > 100 µM (inactive)
CCRF-CEM
  GI50: 47.5 µM (inactive)
NCI-H460
  GI50: 59.4 µM (inactive)
M14
  GI50: > 100 µM (inactive)
PC-3
  GI50: 17.6 µM (inactive)
KM12
  GI50: > 100 µM (inactive)
HCT-15
  GI50: 14 µM
COLO 205
  GI50: 41 µM (inactive)
EKVX
  GI50: > 100 µM (inactive)
OVCAR-5
  GI50: > 100 µM (inactive)
NCI-H522
  GI50: > 100 µM (inactive)
SNB-75
  GI50: > 100 µM (inactive)
CAKI-1
  GI50: > 100 µM (inactive)
Hs-578T
  GI50: 52.7 µM (inactive)
ACHN
  GI50: > 100 µM (inactive)
A549
  GI50: 35.9 µM (inactive)
MDA-MB-435
  GI50: 67.8 µM (inactive)
IGROV-1
  GI50: > 100 µM (inactive)
UACC-62
  GI50: > 100 µM (inactive)
UO-31
  GI50: > 100 µM (inactive)
OVCAR-8
  GI50: 14.7 µM (inactive)
SNB-19
  GI50: 83.2 µM (inactive)
MOLT-4
  GI50: 55.6 µM (inactive)
U-251
  GI50: 38.3 µM (inactive)
LOX IMVI
  GI50: > 100 µM (inactive)
RXF 393
  GI50: 49.8 µM (inactive)
HCC 2998
  GI50: > 100 µM (inactive)
HCT-116
  GI50: 14.3 µM (inactive)
786-0
  GI50: 16.2 µM (inactive)
HOP-62
  GI50: > 100 µM (inactive)
DU-145
  GI50: > 100 µM (inactive)
MCF7
  GI50: 13.2 µM (inactive)
SF-539
  GI50: > 100 µM (inactive)
MDA-N
  GI50: 49.8 µM (inactive)
SR
  GI50: 99.1 µM (inactive)
SK-MEL-28
  GI50: > 100 µM (inactive)
NCI-H23
  GI50: 40.3 µM (inactive)
MDA-MB-231
  GI50: 22.6 µM (inactive)
T47D
  GI50: 91.6 µM (inactive)
HT-29
  GI50: > 100 µM (inactive)
SK-OV-3
  GI50: > 100 µM (inactive)
Malme-3M
  GI50: > 100 µM (inactive)
SW-620
  GI50: > 100 µM (inactive)
UACC-257
  GI50: > 100 µM (inactive)
TK-10
  GI50: 63.4 µM (inactive)
OVCAR-4
  GI50: 47.1 µM (inactive)
SF-268
  GI50: > 100 µM (inactive)
NCI-H226
  GI50: > 100 µM (inactive)
A498
  GI50: 21 µM (inactive)
HOP-92
  GI50: > 100 µM (inactive)
SN12C
  GI50: > 100 µM (inactive)
SF-295
  GI50: > 100 µM (inactive)

## COc1ccc(N2C(=O)C3c4[nH]c5ccccc5c4C4CCCCCCCCCC4C3C2=O)cc1 (stereo unspecified)
OVCAR-3
  GI50: > 10 µM (inactive)
NCI/ADR-RES
  GI50: > 10 µM (inactive)
HL-60
  GI50: > 10 µM (inactive)
K562
  GI50: > 10 µM (inactive)
CCRF-CEM
  GI50: > 10 µM (inactive)
NCI-H460
  GI50: > 10 µM (inactive)
M14
  GI50: > 10 µM (inactive)
PC-3
  GI50: > 10 µM (inactive)
KM12
  GI50: > 10 µM (inactive)
HCT-15
  GI50: > 10 µM
COLO 205
  GI50: > 10 µM (inactive)
EKVX
  GI50: > 10 µM (inactive)
SK-MEL-2
  GI50: > 10 µM (inactive)
OVCAR-5
  GI50: > 10 µM (inactive)
NCI-H522
  GI50: > 10 µM (inactive)
SNB-75
  GI50: > 10 µM (inactive)
CAKI-1
  GI50: > 10 µM (inactive)
Hs-578T
  GI50: > 10 µM (inactive)
ACHN
  GI50: > 10 µM (inactive)
A549
  GI50: > 10 µM (inactive)
MDA-MB-435
  GI50: > 10 µM (inactive)
IGROV-1
  GI50: > 10 µM (inactive)
UACC-62
  GI50: > 10 µM (inactive)
UO-31
  GI50: > 10 µM (inactive)
OVCAR-8
  GI50: > 10 µM (inactive)
RPMI-8226
  GI50: > 10 µM (inactive)
SNB-19
  GI50: > 10 µM (inactive)
MOLT-4
  GI50: > 10 µM (inactive)
U-251
  GI50: > 10 µM (inactive)
LOX IMVI
  GI50: > 10 µM (inactive)
RXF 393
  GI50: > 10 µM (inactive)
HCC 2998
  GI50: > 10 µM (inactive)
HCT-116
  GI50: > 10 µM (inactive)
HOP-62
  GI50: > 10 µM (inactive)
DU-145
  GI50: > 10 µM (inactive)
MCF7
  GI50: > 10 µM (inactive)
SF-539
  GI50: 7.28 µM (inactive)
MDA-N
  GI50: > 10 µM (inactive)
SR
  GI50: > 10 µM (inactive)
SK-MEL-5
  GI50: > 10 µM (inactive)
SK-MEL-28
  GI50: > 10 µM (inactive)
NCI-H23
  GI50: > 10 µM (inactive)
MDA-MB-231
  GI50: > 10 µM (inactive)
T47D
  GI50: > 10 µM (inactive)
HT-29
  GI50: > 10 µM (inactive)
SK-OV-3
  GI50: > 10 µM (inactive)
Malme-3M
  GI50: > 10 µM (inactive)
SW-620
  GI50: > 10 µM (inactive)
TK-10
  GI50: > 10 µM (inactive)
OVCAR-4
  GI50: > 10 µM (inactive)
SF-268
  GI50: > 10 µM (inactive)
NCI-H226
  GI50: > 10 µM (inactive)
A498
  GI50: > 10 µM (inactive)
SN12C
  GI50: > 10 µM (inactive)
SF-295
  GI50: > 10 µM (inactive)

## O=Cc1c2c(cc3c1CC1(C3)Cc3cc4c(c(C=O)c3C1)CCCC4)CCCC2
OVCAR-3
  GI50: > 31.6 µM (inactive)
NCI/ADR-RES
  GI50: > 31.6 µM (inactive)
HL-60
  GI50: 56.1 µM (inactive)
K562
  GI50: 21.1 µM (inactive)
NCI-H460
  GI50: 52.2 µM (inactive)
M14
  GI50: > 31.6 µM (inactive)
PC-3
  GI50: 19.9 µM (inactive)
KM12
  GI50: 21.6 µM (inactive)
HCT-15
  GI50: 19.2 µM
COLO 205
  GI50: 25.1 µM (inactive)
EKVX
  GI50: 23.9 µM (inactive)
SK-MEL-2
  GI50: > 10 µM (inactive)
OVCAR-5
  GI50: > 31.6 µM (inactive)
NCI-H522
  GI50: 14.3 µM (inactive)
SNB-75
  GI50: > 100 µM (inactive)
CAKI-1
  GI50: 46.5 µM (inactive)
Hs-578T
  GI50: > 31.6 µM (inactive)
ACHN
  GI50: 22.9 µM (inactive)
A549
  GI50: 21.3 µM (inactive)
MDA-MB-435
  GI50: > 31.6 µM (inactive)
IGROV-1
  GI50: 23 µM (inactive)
UACC-62
  GI50: > 31.6 µM (inactive)
OVCAR-8
  GI50: 23.5 µM (inactive)
RPMI-8226
  GI50: 16.8 µM (inactive)
SNB-19
  GI50: 98.9 µM (inactive)
MOLT-4
  GI50: 13.3 µM (inactive)
U-251
  GI50: > 31.6 µM (inactive)
LOX IMVI
  GI50: 23.6 µM (inactive)
RXF 393
  GI50: > 31.6 µM (inactive)
HCC 2998
  GI50: 29.4 µM (inactive)
HCT-116
  GI50: 20.4 µM (inactive)
786-0
  GI50: > 31.6 µM (inactive)
HOP-62
  GI50: > 31.6 µM (inactive)
DU-145
  GI50: 85.3 µM (inactive)
MCF7
  GI50: > 31.6 µM (inactive)
SF-539
  GI50: > 31.6 µM (inactive)
MDA-N
  GI50: > 31.6 µM (inactive)
SR
  GI50: 10.1 µM (inactive)
SK-MEL-5
  GI50: > 31.6 µM (inactive)
SK-MEL-28
  GI50: > 100 µM (inactive)
NCI-H23
  GI50: 27.5 µM (inactive)
MDA-MB-231
  GI50: 27.6 µM (inactive)
T47D
  GI50: > 31.6 µM (inactive)
HT-29
  GI50: 18 µM (inactive)
SK-OV-3
  GI50: > 31.6 µM (inactive)
Malme-3M
  GI50: > 31.6 µM (inactive)
SW-620
  GI50: 89.3 µM (inactive)
UACC-257
  GI50: > 31.6 µM (inactive)
TK-10
  GI50: > 31.6 µM (inactive)
OVCAR-4
  GI50: > 31.6 µM (inactive)
SF-268
  GI50: > 100 µM (inactive)
NCI-H226
  GI50: > 31.6 µM (inactive)
A498
  GI50: > 10 µM (inactive)
HOP-92
  GI50: 15.5 µM (inactive)
SN12C
  GI50: > 31.6 µM (inactive)
SF-295
  GI50: 20.6 µM (inactive)
